15 molecules from patent US20150045553A1, “PHENYLTRIAZOLE DERIVATIVE” (TOSHO PHARMACEUTICAL CO., LTD, priority 2011, published 2015) can be followed below.

Where a name gives a salt, the structure may show the parent alone.

In the test the target is T1, H3 receptor (Rattus norvegicus, UniProt Q9QYN8).
T1 construct: The frontal cortex dissected from rats was homogenized; from tissue; host or cells: rat frontal cortex membrane fraction
T1 sequence (Q9QYN8 whole entry): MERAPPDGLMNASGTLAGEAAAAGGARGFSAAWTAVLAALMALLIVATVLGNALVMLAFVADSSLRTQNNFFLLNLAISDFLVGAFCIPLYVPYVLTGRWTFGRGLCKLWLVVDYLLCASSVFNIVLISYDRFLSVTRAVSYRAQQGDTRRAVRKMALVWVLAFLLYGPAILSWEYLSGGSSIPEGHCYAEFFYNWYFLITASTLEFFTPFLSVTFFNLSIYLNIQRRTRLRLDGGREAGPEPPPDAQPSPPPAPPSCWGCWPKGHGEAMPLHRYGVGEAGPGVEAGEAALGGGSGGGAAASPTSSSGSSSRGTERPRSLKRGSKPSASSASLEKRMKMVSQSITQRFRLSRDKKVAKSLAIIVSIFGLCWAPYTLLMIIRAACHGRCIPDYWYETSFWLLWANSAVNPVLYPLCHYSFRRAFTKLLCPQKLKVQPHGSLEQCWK
The experiment in a line: Rat H3 receptor binding test (N-α-methyl[3H]histamine, frontal cortex membrane fraction). The following applies: N-α-methyl[3H]histamine 0.75 nM, room temperature, an hour. As for the experimental part:
(Test 1: Rat H3 Receptor Binding Test)
The frontal cortex dissected from rats was homogenized with a Teflon (registered trademark) homogenizer in a 50 mM Tris-HCl buffer solution (pH 7.4) containing a protease inhibitor (Complete EDTA-free; Roche Diagnostics) and 5 mM EDTA. The homogenate was centrifuged at 48,000×g for 15 minutes. The supernatant was removed and the pellet was suspended in a 50 mM Tris-HCl buffer solution (pH 7.4) containing 5 mM EDTA and centrifuged at 48,000×g for 15 minutes. The supernatant was removed and the pellet was suspended in a 50 mM Tris-HCl buffer solution (pH 7.4) containing 5 mM EDTA to give a membrane fraction. The membrane fraction (the protein content in the final reaction mixture: 75 μg), N-α-methyl[^3H]histamine (PerkinElmer; final concentration: 0.75 nM) and a test drug were mixed and subjected to reaction at room temperature for an hour. After the end of the reaction, the reaction mixture was suction filtered through a 96-well GF/C filter plate pretreated with 0.3% polyethyleneimine; the filters were then washed five times with a 50 mM Tris-HCl buffer solution (pH 7.4) containing 5 mM EDTA. After the washing, the filters were dried and a scintillator was added to measure the residual radioactivity on the filter with TopCount (PerkinElmer).
The residual radioactivity in the presence of 10 μM thioperamide was taken as indicative of nonspecific binding and the difference from the residual radioactivity in the absence of thioperamide was taken as indicative of specific binding. Each of the test drugs was dissolved and diluted in DMSO at varying concentrations to plot a dose-response curve from the corresponding residual radioactivities; the concentration of test drug that inhibited the specific binding by 50% (IC50) was determined from this curve.
As for `O=C(c1cn(-c2ccc(OC3CCN(C4CCC4)CC3)cc2)nn1)N1CCC1` [Compound No. 18, azetidin-1-yl(1-{4-[(1-cyclobutylpiperidin-4-yl)oxy]phenyl}-1H-1,2,3-triazol-4-yl)methanone], the IC50 – broadly, the point on the concentration scale where inhibition reaches its midpoint – came out at 14 nM.
Consider `CC(C)(C)N1CCC(Oc2ccc(-n3cc(C(=O)N4CCC4)nn3)cc2)CC1` [Compound No. 29, azetidin-1-yl(1-{4-[(1-tert-butylpiperidin-4-yl)oxy]phenyl}-1H-1,2,3-triazol-4-yl)methanone], for which the IC50 stood at 48 nM.
`N#Cc1cn(-c2ccc(OC3CCN(C4CCC4)CC3)cc2)nn1` [Compound No. 21, 1-{4-[(1-cyclobutylpiperidin-4-yl)oxy]phenyl}-1H-1,2,3-triazole-4-carbonitrile hydrochloride]: the IC50 was 13 nM.
For `CC(C)(C)N1CCC(Oc2ccc(-n3cc(C(=O)N4CCCC4)nn3)cc2)CC1` [Compound No. 28, (1-{4-[(1-tert-butylpiperidin-4-yl)oxy]phenyl}-1H-1,2,3-triazol-4-yl)(pyrrolidin-1-yl)methanone] the value was 33 nM; for `CCOC(=O)c1cn(-c2ccc(OC3CCN(C(C)(C)C)CC3)cc2)nn1` [Compound No. 27, ethyl 1-{4-[(1-tert-butylpiperidin-4-yl)oxy]phenyl}-1H-1,2,3-triazole-4-carboxylate], 70 nM; for `CCOC(=O)c1ncn(-c2ccc(OC3CCN(C4CCC4)CC3)cc2)n1` [Compound No. 33, ethyl 1-{4-[(1-cyclobutylpiperidin-4-yl)oxy]phenyl}-1H-1,2,4-triazole-3-carboxylate], 4.5 nM.
`O=C(Cc1cn(-c2ccc(OC3CCN(C4CCC4)CC3)cc2)nn1)N1CCC1` [compound 13, 1-(azetidin-1-yl)-2-(1-{4-[(1-cyclobutylpiperidin-4-yl)oxy]phenyl}-1H-1,2,3-triazol-4-yl)ethanone]: the IC50 was determined as 19 nM.
Take `O=C(O)c1ncn(-c2ccc(OC3CCN(C4CCC4)CC3)cc2)n1` [Compound No. 38, 1-{4-[(1-cyclobutylpiperidin-4-yl)oxy]phenyl}-1H-1,2,4-triazole-3-carboxylic acid hydrochloride]: the IC50 came out at 158 nM.
Molecule `O=C(c1ncn(-c2ccc(OC3CCN(C4CCC4)CC3)cc2)n1)N1CCCCC1` [Compound No. 36, (1-{4-[(1-cyclobutylpiperidin-4-yl)oxy]phenyl}-1H-1,2,4-triazol-3-yl)(piperidin-1-yl)methanone] displayed an IC50 of 10 nM.
For `CC(C)(C)NC(=O)c1ncn(-c2ccc(OC3CCN(C4CCC4)CC3)cc2)n1` [Compound No. 37, N-tert-butyl-1-{4-[(1-cyclobutylpiperidin-4-yl)oxy]phenyl}-1H-1,2,4-triazole-3-carboxamide] the value was 7.3 nM; for `CC(C)(C)c1cn(-c2ccc(OC3CCN(C4CCC4)CC3)cc2)nn1` [compound 7, 4-[4-(4-tert-butyl-1H-1,2,3-triazol-1-yl)phenoxy]-1-cyclobutylpiperidine], 4.9 nM.
The molecule `NC(=O)c1cn(-c2ccc(OC3CCN(C4CCC4)CC3)cc2)nn1` [Compound No. 20, 1-{4-[(1-cyclobutylpiperidin-4-yl)oxy]phenyl}-1H-1,2,3-triazole-4-carboxamide] returned an IC50 of 18 nM.
For `Cc1c(C(=O)N2CCC2)nnn1-c1ccc(OC2CCN(C3CCC3)CC2)cc1` [compound 10, azetidin-1-yl(1-{4-[(1-cyclobutylpiperidin-4-yl)oxy]phenyl}-5-methyl-1H-1,2,3-triazol-4-yl)methanone], the IC50 turned out to be 37 nM.
Molecule `CC(=O)c1cn(-c2ccc(OC3CCN(C4CCC4)CC3)cc2)nn1` [compound 5, 1-(1-[4-[(1-cyclobutylpiperidin-4-yl)oxy]phenyl}-1H-1,2,3-triazol-4-yl)ethanone] came in with an IC50 of 7.7 nM.
For `CNC(=O)c1cn(-c2ccc(OC3CCN(C(C)(C)C)CC3)cc2)nn1` [Compound No. 30, 1-{4-[(1-tert-butylpiperidin-4-yl)oxy]phenyl}-N-methyl-1H-1,2,3-triazole-4-carboxamide] the value was 126 nM.
